From patent US20260015350A1, “AZAQUINAZOLINE PAN-KRAS INHIBITORS” (Mirati Therapeutics, Inc., priority 2022, published 2026)

What was measured:
KRas^G12R = molecular target: T1, KRas^G12R (Homo sapiens, UniProt P01116, G12R); experiment: KRas binding assay (TR-FRET tracer displacement), KRas G12R
T1 construct: Biotinylated KRas (corresponding to amino acids 1-169, produced at Accelegan Inc.); biotin (biotinylated); purchased Accelegan Inc

[1] = test system: KRas-mediated phosphorylation of ERK in H727 cells; experiment: Inhibition of KRas-mediated phosphorylation of ERK (Cisbio HTRF pERK), H727 cells; type: cell-based; settings: Homo sapiens, NCI-H727, H727 cells; HTRF pERK
Method: (§1) Inhibition of KRas Phosphorylation of ERK (HTRF) by Exemplary Compounds of Formula (I) Cisbio HTRF Advanced PERK Assay Catalog #64[…] […] Add 10 mL of media to stop trypsinizing. Pipette the cells into a conical bottom 50 mL centrifuge tube and centrifuge 5 min×1000 rpm. […] Re-suspend the cell pellet in media, take a cell count, and then adjust the cell density using fresh media. […] Seed 6,000 cells into cell culture plate with 50 μL media. […] Use Tecan to complete the compound addition. Compounds start from 10 uM top, 3-fold dilution, and 10 doses. The final DMSO concentration is 0.8%. Dispensed 0.2 uM Trametinib as Min control. […] Incubate cell plate for 3 hrs in the incubator. […] Dilute 1 volume of 4× lysis buffer with 3 volumes of deionized water. […] Keep lysis buffer on the ice. […] At the end of the compound treatment, flick-off the media. […] Add 35 μL of lysis buffer per well using a Multidrop Combi. Then place on a plate agitator shaking at 300 rpm at 4° C. for 40 mins. […] Make up the HTRF antibody buffer. For each assay plate, mix 50 μL of d2-conjugate antibody with 950 μL of detection buffer. Similarly, mix 50 μL of Cryptate antibody with 950 μL of detection buffer. Then mix the two diluted antibodies together. […] Dispense 3.4 μL the antibody buffer to wells of an empty assay plate. Seal the plate and centrifuge plate 30 sec×1000 rpm. […] At the end of the 4° C. lysis, centrifuge the lysate plates 3 mins×1500 rpm. […] Use the Bravo to transfer 13.6 μL of lysate from cell culture plate to assay plate. Then incubate assay plate for 2 hrs at room temperature. 8. At the end of incubation, read plate on the Envision after centrifuging plate 30 sec×1000 rpm.

KRas^G12D = molecular target: T2, KRas^G12D (Homo sapiens, UniProt P01116, G12D); experiment: KRas binding assay (TR-FRET tracer displacement), KRas G12D
T2 construct: Biotinylated KRas (corresponding to amino acids 1-169, produced at Accelegan Inc.); biotin (biotinylated); purchased Accelegan Inc
T2 sequence (P01116 1-169 isoform P01116-2 G12D): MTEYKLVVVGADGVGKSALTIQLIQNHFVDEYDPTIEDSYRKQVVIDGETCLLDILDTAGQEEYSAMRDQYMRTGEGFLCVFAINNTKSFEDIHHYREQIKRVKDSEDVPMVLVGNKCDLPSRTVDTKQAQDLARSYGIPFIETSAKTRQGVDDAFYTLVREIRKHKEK

KRas^G12V = molecular target: T3, KRas^G12V (Homo sapiens, UniProt P01116, G12V); experiment: KRas binding assay (TR-FRET tracer displacement), KRas G12V
T3 construct: Biotinylated KRas (corresponding to amino acids 1-169, produced at Accelegan Inc.); biotin (biotinylated); purchased Accelegan Inc
T3 sequence (P01116 1-169 isoform P01116-2 G12V): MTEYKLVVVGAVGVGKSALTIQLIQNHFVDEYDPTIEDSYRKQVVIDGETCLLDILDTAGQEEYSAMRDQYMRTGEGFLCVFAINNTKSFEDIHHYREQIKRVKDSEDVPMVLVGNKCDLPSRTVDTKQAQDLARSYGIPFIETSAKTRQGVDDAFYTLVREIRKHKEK

[2] = test system: KRas-mediated phosphorylation of ERK in AsPC-1 cells; experiment: Inhibition of KRas-mediated phosphorylation of ERK (Cisbio HTRF pERK), AsPC-1 cells; type: cell-based; settings: Homo sapiens, ASPC1, AsPC-1 cells; HTRF pERK
Method: as §1

T1 sequence (P01116 1-169 isoform P01116-2 G12R): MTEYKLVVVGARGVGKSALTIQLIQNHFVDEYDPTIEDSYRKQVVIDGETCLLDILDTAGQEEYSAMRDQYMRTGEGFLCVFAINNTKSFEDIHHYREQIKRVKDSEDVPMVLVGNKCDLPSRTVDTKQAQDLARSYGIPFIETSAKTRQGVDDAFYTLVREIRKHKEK

Structure (SMILES) | IC50 (KRas^G12R) [nM] | IC50 [1] [nM] | IC50 (KRas^G12D) [nM] | IC50 (KRas^G12V) [nM] | IC50 [2] [nM]
CCc1c(F)ccc2cc(O)cc(-c3ncc4c(NCc5cc(C(=O)N(C)C)n(CCC#N)n5)nc(OC[C@@]56CCCN5C[C@H](F)C6)nc4c3F)c12 [Example 668, 1-(2-cyanoethyl)-3-(((7-(8-ethyl-7-fluoro-3-hydroxynaphthalen-1-yl)-8-fluoro-2-(((2R,7aS)-2-fluorohexahydro-1H-pyrrolizin-7a-yl)methoxy)pyrido[4,3-d]pyrimidin-4-yl)amino)methyl)-N,N-dimethyl-1H-pyrazole-5-carboxamide] | 16 | > 10000 | 34 | 12 | > 10000
CCc1c(F)ccc2cc(O)cc(-c3ncc4c(N5C6CNC(=O)CC5COC6)nc(OC[C@@]56CCCN5C[C@H](F)C6)nc4c3F)c12 (stereo partly drawn) [Example 599, 10-(7-(8-ethyl-7-fluoro-3-hydroxynaphthalen-1-yl)-8-fluoro-2-(((2R,7aS)-2-fluorohexahydro-1H-pyrrolizin-7a-yl)methoxy)pyrido[4,3-d]pyrimidin-4-yl)-8-oxa-3,10-diazabicyclo[4.3.1]decan-4-one] | 23 | > 10000 | 2120 | 85 | > 10000
CCc1c(F)ccc2cc(O)cc(-c3ncc4c(N5CCC6(CC5)CC[S+]6[O-])nc(OC[C@@]56CCCN5C[C@H](F)C6)nc4c3F)c12 (stereo partly drawn) [Example 603, 7-(7-(8-ethyl-7-fluoro-3-hydroxynaphthalen-1-yl)-8-fluoro-2-(((2R,7aS)-2-fluorotetrahydro-1H-pyrrolizin-7a(5H)-yl)methoxy)pyrido[4,3-d]pyrimidin-4-yl)-1-thia-7-azaspiro[3.5]nonane 1-oxide] | 453 | > 10000 | 1630 | 590 | > 10000

Second part, the molecule after the results:

IC50 (KRas^G12R) [nM] | IC50 [1] [nM] | IC50 (KRas^G12D) [nM] | IC50 (KRas^G12V) [nM] | IC50 [2] [nM] | Structure (SMILES)
< 2 | 2040 | 32 | 3 | 9490 | CCc1c(F)ccc2cc(O)cc(-c3ncc4c(NCc5cn(C(=O)N(C)C)nc5NC(C)=O)nc(OC[C@@]56CCCN5C[C@H](F)C6)nc4c3F)c12 [Example 675, 3-acetamido-4-(((7-(8-ethyl-7-fluoro-3-hydroxynaphthalen-1-yl)-8-fluoro-2-(((2R,7aS)-2-fluorohexahydro-1H-pyrrolizin-7a-yl)methoxy)pyrido[4,3-d]pyrimidin-4-yl)amino)methyl)-N,N-dimethyl-1H-pyrazole-1-carboxamide]
6 | > 10000 | 5 | 2 | > 10000 | CCc1c(F)ccc2cc(O)cc(-c3ncc4c(NCc5cc(C(=O)N(C)C)nn5C5CS(=O)(=O)C5)nc(OC[C@@]56CCCN5C[C@H](F)C6)nc4c3F)c12 [Example 691, 1-(1,1-dioxidothietan-3-yl)-5-(((7-(8-ethyl-7-fluoro-3-hydroxynaphthalen-1-yl)-8-fluoro-2-(((2R,7aS)-2-fluorohexahydro-1H-pyrrolizin-7a-yl)methoxy)pyrido[4,3-d]pyrimidin-4-yl)amino)methyl)-N,N-dimethyl-1H-pyrazole-3-carboxamide]
38 | > 10000 | 509 | 25 | > 10000 | CCc1c(F)ccc2cc(O)cc(-c3ncc4c(NCc5cn(C(=O)N(C)C)nc5NC(=O)C5CC(O)C5)nc(OC[C@@]56CCCN5C[C@H](F)C6)nc4c3F)c12 (stereo partly drawn) [Example 693, 4-(((7-(8-ethyl-7-fluoro-3-hydroxynaphthalen-1-yl)-8-fluoro-2-(((2R,7aS)-2-fluorohexahydro-1H-pyrrolizin-7a-yl)methoxy)pyrido[4,3-d]pyrimidin-4-yl)amino)methyl)-3-(3-hydroxycyclobutanecarboxamido)-N,N-dimethyl-1H-pyrazole-1-carboxamide]
